Results: patent US6156700A, “3-(1,2-Benzisothiazol- and isoxazol-5-yl)-2,4(1H,3H)-pyrimidinedione or thione and 3-(1,2-benzisothiazol- and isoxazol-5-yl)-4(3H)-pyrimidinone or thione herbicidal agents” (American Cyanmid Company, priority 1998, dated 2000)

Experiments:
AMBEL [1] = experiment: Postemergence herbicidal evaluation; assay type: in vivo
ZEAMX [2] = experiment: Postemergence herbicidal evaluation; assay type: in vivo
GLXMAW [3] = experiment: Postemergence herbicidal evaluation; assay type: in vivo
CASOB [4] = experiment: Postemergence herbicidal evaluation; assay type: in vivo
SETVI [5] = experiment: Postemergence herbicidal evaluation; assay type: in vivo
IPOSS [6] = experiment: Postemergence herbicidal evaluation; assay type: in vivo
ORYSAT [7] = experiment: Postemergence herbicidal evaluation; assay type: in vivo, Oryza sativa
ECHCG [8] = experiment: Preemergence herbicidal evaluation; assay type: in vivo; parameters: scale not given here
Description: (§1) The preemergence and postemergence herbicidal properties of certain compounds of the present invention are compared with certain compounds disclosed in U.S. Pat. Nos. 5,484,763 and 5,523,278. The evaluations are performed as described in Examples 185 and 186. Data in Tables V and VI are reported by the compound number given in Example 185 for the compounds of this invention or by comparative compound letter for the compounds disclosed in U.S. Pat. Nos. 5,484,763 and 5,523,278.

CASOB [9] = experiment: Preemergence herbicidal evaluation; assay type: in vivo; parameters: scale not given here
Description: as §1

ABUTH [10] = experiment: Preemergence herbicidal evaluation; assay type: in vivo; parameters: scale not given here
Description: as §1

CHEAL [11] = experiment: Preemergence herbicidal evaluation; assay type: in vivo; parameters: scale not given here
Description: as §1

GALAP [12] = experiment: Preemergence herbicidal evaluation; assay type: in vivo; parameters: scale not given here
Description: as §1

GLXMAW [13] = experiment: Preemergence herbicidal evaluation; assay type: in vivo; parameters: scale not given here
Description: as §1

IPOSS [14] = experiment: Preemergence herbicidal evaluation; assay type: in vivo; parameters: scale not given here
Description: as §1

ZEAMX [15] = experiment: Preemergence herbicidal evaluation; assay type: in vivo; parameters: scale not given here
Description: as §1

AMBEL [16] = experiment: Preemergence herbicidal evaluation; assay type: in vivo; parameters: scale not given here
Description: as §1

SETVI [17] = experiment: Preemergence herbicidal evaluation; assay type: in vivo; parameters: scale not given here
Description: as §1

ECHCG [18] = experiment: Postemergence herbicidal evaluation; assay type: in vivo
CHEAL [19] = experiment: Postemergence herbicidal evaluation; assay type: in vivo
ABUTH [20] = experiment: Postemergence herbicidal evaluation; assay type: in vivo
GALAP [21] = experiment: Postemergence herbicidal evaluation; assay type: in vivo
ORYSAT [22] = experiment: Preemergence herbicidal evaluation; assay type: in vivo, Oryza sativa; parameters: scale not given here
Description: as §1

Cc1nsc2ccc(N3C(=O)C4=C(CCCC4)C3=O)cc12 [B]
herbicidal effect rating (AMBEL [1]; 0.0157-0.0160 kg/ha): 2.0
herbicidal effect rating (AMBEL [1]; 0.0313-0.0320 kg/ha): 6.0
herbicidal effect rating (AMBEL [1]; 0.0625-0.0640 kg/ha): 8.0
herbicidal effect rating (AMBEL [1]; 0.1250 kg/ha): 8.0
herbicidal effect rating (AMBEL [1]; 0.2500 kg/ha): 9.0
herbicidal effect rating (AMBEL [1]; 0.5000 kg/ha): 9.0
herbicidal effect rating (ZEAMX [2]; 0.0157-0.0160 kg/ha): 5.0
herbicidal effect rating (ZEAMX [2]; 0.0313-0.0320 kg/ha): 5.5
herbicidal effect rating (ZEAMX [2]; 0.0625-0.0640 kg/ha): 5.0
herbicidal effect rating (ZEAMX [2]; 0.1250 kg/ha): 5.5
herbicidal effect rating (ZEAMX [2]; 0.2500 kg/ha): 6.0
herbicidal effect rating (ZEAMX [2]; 0.5000 kg/ha): 5.5
herbicidal effect rating (GLXMAW [3]; 0.0157-0.0160 kg/ha): 5.5
herbicidal effect rating (GLXMAW [3]; 0.0313-0.0320 kg/ha): 5.5
herbicidal effect rating (GLXMAW [3]; 0.0625-0.0640 kg/ha): 5.5
herbicidal effect rating (GLXMAW [3]; 0.1250 kg/ha): 6.0
herbicidal effect rating (GLXMAW [3]; 0.2500 kg/ha): 7.0
herbicidal effect rating (GLXMAW [3]; 0.5000 kg/ha): 7.5
herbicidal effect rating (CASOB [4]; 0.0157-0.0160 kg/ha): 6.0
herbicidal effect rating (CASOB [4]; 0.0313-0.0320 kg/ha): 7.0
herbicidal effect rating (CASOB [4]; 0.0625-0.0640 kg/ha): 8.0
herbicidal effect rating (CASOB [4]; 0.1250 kg/ha): 8.0
herbicidal effect rating (CASOB [4]; 0.2500 kg/ha): 9.0
herbicidal effect rating (CASOB [4]; 0.5000 kg/ha): 9.0
herbicidal effect rating (SETVI [5]; 0.0157-0.0160 kg/ha): 0.0
herbicidal effect rating (SETVI [5]; 0.0313-0.0320 kg/ha): 0.0
herbicidal effect rating (SETVI [5]; 0.0625-0.0640 kg/ha): 2.0
herbicidal effect rating (SETVI [5]; 0.1250 kg/ha): 4.0
herbicidal effect rating (SETVI [5]; 0.2500 kg/ha): 5.0
herbicidal effect rating (SETVI [5]; 0.5000 kg/ha): 5.0
herbicidal effect rating (IPOSS [6]; 0.0157-0.0160 kg/ha): 6.0
herbicidal effect rating (IPOSS [6]; 0.0313-0.0320 kg/ha): 7.0
herbicidal effect rating (IPOSS [6]; 0.0625-0.0640 kg/ha): 8.0
herbicidal effect rating (IPOSS [6]; 0.1250 kg/ha): 8.0
herbicidal effect rating (IPOSS [6]; 0.2500 kg/ha): 8.0
herbicidal effect rating (IPOSS [6]; 0.5000 kg/ha): 9.0
herbicidal effect rating (ORYSAT [7]; 0.0157-0.0160 kg/ha): 3.5
herbicidal effect rating (ORYSAT [7]; 0.0313-0.0320 kg/ha): 4.0
herbicidal effect rating (ORYSAT [7]; 0.0625-0.0640 kg/ha): 4.5
herbicidal effect rating (ORYSAT [7]; 0.1250 kg/ha): 4.5
herbicidal effect rating (ORYSAT [7]; 0.2500 kg/ha): 5.5
herbicidal effect rating (ORYSAT [7]; 0.5000 kg/ha): 6.0
herbicidal effect rating (ECHCG [8]; 0.0313-0.0320 kg/ha): 0.0
herbicidal effect rating (ECHCG [8]; 0.0620-0.0630 kg/ha): 0.0
herbicidal effect rating (ECHCG [8]; 0.1250 kg/ha): 3.0
herbicidal effect rating (ECHCG [8]; 0.2500 kg/ha): 5.0
herbicidal effect rating (ECHCG [8]; 0.5000 kg/ha): 5.0
herbicidal effect rating (CASOB [9]; 0.0313-0.0320 kg/ha): 0.0
herbicidal effect rating (CASOB [9]; 0.0620-0.0630 kg/ha): 0.0
herbicidal effect rating (CASOB [9]; 0.1250 kg/ha): 0.0
herbicidal effect rating (CASOB [9]; 0.2500 kg/ha): 0.0
herbicidal effect rating (CASOB [9]; 0.5000 kg/ha): 0.0
herbicidal effect rating (ABUTH [10]; 0.0313-0.0320 kg/ha): 0.0
herbicidal effect rating (ABUTH [10]; 0.0620-0.0630 kg/ha): 3.0
herbicidal effect rating (ABUTH [10]; 0.2500 kg/ha): 2.0
herbicidal effect rating (ABUTH [10]; 0.5000 kg/ha): 5.0
herbicidal effect rating (CHEAL [11]; 0.0313-0.0320 kg/ha): 9.0
herbicidal effect rating (CHEAL [11]; 0.0620-0.0630 kg/ha): 6.0
herbicidal effect rating (CHEAL [11]; 0.1250 kg/ha): 9.0
herbicidal effect rating (CHEAL [11]; 0.2500 kg/ha): 9.0
herbicidal effect rating (CHEAL [11]; 0.5000 kg/ha): 9.0
herbicidal effect rating (GALAP [12]; 0.0313-0.0320 kg/ha): 0.0
herbicidal effect rating (GALAP [12]; 0.0620-0.0630 kg/ha): 0.0
herbicidal effect rating (GALAP [12]; 0.1250 kg/ha): 5.0
herbicidal effect rating (GALAP [12]; 0.2500 kg/ha): 9.0
herbicidal effect rating (GALAP [12]; 0.5000 kg/ha): 7.0
herbicidal effect rating (GLXMAW [13]; 0.0313-0.0320 kg/ha): 0.0
herbicidal effect rating (GLXMAW [13]; 0.0620-0.0630 kg/ha): 0.0
herbicidal effect rating (GLXMAW [13]; 0.1250 kg/ha): 0.0
herbicidal effect rating (GLXMAW [13]; 0.2500 kg/ha): 1.0
herbicidal effect rating (GLXMAW [13]; 0.5000 kg/ha): 1.0
herbicidal effect rating (IPOSS [14]; 0.0313-0.0320 kg/ha): 0.0
herbicidal effect rating (IPOSS [14]; 0.0620-0.0630 kg/ha): 0.0
herbicidal effect rating (IPOSS [14]; 0.1250 kg/ha): 0.0
herbicidal effect rating (IPOSS [14]; 0.2500 kg/ha): 2.0
herbicidal effect rating (IPOSS [14]; 0.5000 kg/ha): 5.0
herbicidal effect rating (ZEAMX [15]; 0.0313-0.0320 kg/ha): 0.0
herbicidal effect rating (ZEAMX [15]; 0.0620-0.0630 kg/ha): 0.0
herbicidal effect rating (ZEAMX [15]; 0.1250 kg/ha): 0.0
herbicidal effect rating (ZEAMX [15]; 0.2500 kg/ha): 0.0
herbicidal effect rating (ZEAMX [15]; 0.5000 kg/ha): 1.0
herbicidal effect rating (AMBEL [16]; 0.0313-0.0320 kg/ha): 0.0
herbicidal effect rating (AMBEL [16]; 0.0620-0.0630 kg/ha): 0.0
herbicidal effect rating (AMBEL [16]; 0.1250 kg/ha): 2.0
herbicidal effect rating (AMBEL [16]; 0.2500 kg/ha): 3.0
herbicidal effect rating (AMBEL [16]; 0.5000 kg/ha): 8.0
herbicidal effect rating (SETVI [17]; 0.0313-0.0320 kg/ha): 0.0
herbicidal effect rating (SETVI [17]; 0.0620-0.0630 kg/ha): 0.0
herbicidal effect rating (SETVI [17]; 0.1250 kg/ha): 2.0
herbicidal effect rating (SETVI [17]; 0.2500 kg/ha): 6.0
herbicidal effect rating (SETVI [17]; 0.5000 kg/ha): 4.0
herbicidal effect rating (ECHCG [18]; 0.0157-0.0160 kg/ha): 0.0
herbicidal effect rating (ECHCG [18]; 0.0313-0.0320 kg/ha): 2.0
herbicidal effect rating (ECHCG [18]; 0.0625-0.0640 kg/ha): 2.0
herbicidal effect rating (ECHCG [18]; 0.1250 kg/ha): 4.0
herbicidal effect rating (ECHCG [18]; 0.2500 kg/ha): 5.0
herbicidal effect rating (ECHCG [18]; 0.5000 kg/ha): 6.0
herbicidal effect rating (CHEAL [19]; 0.0157-0.0160 kg/ha): 3.0
herbicidal effect rating (CHEAL [19]; 0.0313-0.0320 kg/ha): 7.0
herbicidal effect rating (CHEAL [19]; 0.0625-0.0640 kg/ha): 7.0
herbicidal effect rating (CHEAL [19]; 0.1250 kg/ha): 9.0
herbicidal effect rating (CHEAL [19]; 0.2500 kg/ha): 8.0
herbicidal effect rating (CHEAL [19]; 0.5000 kg/ha): 9.0
herbicidal effect rating (ABUTH [20]; 0.0157-0.0160 kg/ha): 8.0
herbicidal effect rating (ABUTH [20]; 0.0313-0.0320 kg/ha): 8.0
herbicidal effect rating (ABUTH [20]; 0.0625-0.0640 kg/ha): 9.0
herbicidal effect rating (ABUTH [20]; 0.1250 kg/ha): 9.0
herbicidal effect rating (ABUTH [20]; 0.2500 kg/ha): 9.0
herbicidal effect rating (ABUTH [20]; 0.5000 kg/ha): 9.0
herbicidal effect rating (GALAP [21]; 0.0157-0.0160 kg/ha): 5.0
herbicidal effect rating (GALAP [21]; 0.0313-0.0320 kg/ha): 7.0
herbicidal effect rating (GALAP [21]; 0.0625-0.0640 kg/ha): 7.0
herbicidal effect rating (GALAP [21]; 0.1250 kg/ha): 7.0
herbicidal effect rating (GALAP [21]; 0.2500 kg/ha): 8.0
herbicidal effect rating (GALAP [21]; 0.5000 kg/ha): 8.0
herbicidal effect rating (ORYSAT [22]; 0.0313-0.0320 kg/ha): 0.0
herbicidal effect rating (ORYSAT [22]; 0.0620-0.0630 kg/ha): 0.0
herbicidal effect rating (ORYSAT [22]; 0.1250 kg/ha): 2.0
herbicidal effect rating (ORYSAT [22]; 0.2500 kg/ha): 2.0
herbicidal effect rating (ORYSAT [22]; 0.5000 kg/ha): 4.0
